Results taken from ChEMBL document CHEMBL1143307, “Small-molecule perturbation of competing interactions between c-Myc and Max” (Bioorg Med Chem Lett, 2009).

Tests used:
[1] = Binding affinity to fluorescently tagged c-Myc-p21MAX heterodimer assessed as competitive constant by using fluorescence polarization titration
[2] = Decrease in c-Myc-p21MAX heterodimer binding to E-box DNA at 50 uM by EMSA method

CCc1ccc(/C=C2\SC(=S)NC2=O)cc1 showed an Activity [1] of 12 and a fold change (FC) [2] of 2.
